Assays:
Assay in all cases: Biocide kill of planktonic cells and biofilm on vascular catheter (serum flow model)
Assay type in all cases: cell-based
Acinetobacter baumanii = settings: biofilm on vascular catheter, 5 to 60 minutes, FIG. 10B
Description: (§1) A system as shown in FIG. 6 was used in this study. Serum and a biocide were placed in sealed bottles as the first fluid source 505 and the second fluid source 509, respectively. The fluid sources were connected to a pump 515 by conventional IV tubing. A second pump 531 was used to deliver the fluid mixture to the vascular catheter 3 positioned in the sampling apparatus 1.
Initially, only the first fluid source, serum inoculated with Acinetobacter baumanii (10×10^9 CFU/ml), was used to contaminate the catheter with planktonic cells. The inoculated fluid continuously flowed through IV tubing directly through the catheter for […] to form a layer of planktonic cells on the catheter. […] The segments were transferred to test tubes containing one ml saline and the adherent cells were dislodged by sonication in an aquasonic device, vortexed for about one minute, and then counted on Tropic soya Agar. The number of viable cells were determined for each catheter and were compared to the number of viable cells in control samples (i.e., biocide-free serum) to calculate the biocide concentration required to kill 50% of the bacteria in the biofilm at the same time interval. […] In addition to plating cells on agar and counting the number of colonies, the amount of biofilm formed can be determined by a semiquantitive microtiter plate method. […]

Burkholderia cepacia = settings: 5 to 60 minutes
Description: as §1
(§2) Initially, only the first fluid source, serum inoculated with Acinetobacter baumanii (10×10^9 CFU/ml), was used to contaminate the catheter with planktonic cells. The inoculated fluid continuously flowed through IV tubing directly through the catheter for […] to form a layer of planktonic cells on the catheter. Fluid flow was then stopped and the tubing was then reconfigured as shown in FIG. 6 so that the second fluid source could be introduced. In these test runs, the first fluid source was inoculated with the same concentration of bacteria, and the second fluid source was a biocide (16-16,000 ppm) selected from hydrogen peroxide (H2O2), sodium hypochlorite (SHC), peracetic acid (PAA) and gluteraldehyde (GLT). The fluid mixture continuously flowed through the catheter for 5, 10, 15, 30, 45 or 60 minutes before fluid flow was discontinued to determine bacterial resistance of the planktonic cells on the catheter. In all, six runs were completed for each of four different biocides. After each run, the test catheter was then cut aseptically into 1 cm segments. The segments were transferred to test tubes containing one ml saline and the adherent cells were dislodged by sonication in an aquasonic device, vortexed for about one minute, and then counted on Tropic soya Agar. The number of viable cells were determined for each catheter and were compared to the number of viable cells in control samples (i.e., biocide-free serum) to calculate the biocide concentration required to kill 50% of the bacteria in the biofilm at the same time interval. Instead of saline, other appropriate buffer solutions can be used. In addition to plating cells on agar and counting the number of colonies, the amount of biofilm formed can be determined by a semiquantitive microtiter plate method. For example, adherent cells can be dislodged from test catheters as described above. The aliquots of solutions containing the cells from each catheter piece can then be added separately to wells of a 96-well tissue culture plate and incubated at 37° C. for 24 h. After several (e.g., three) washes with PBS, any remaining biofilm is stained with safranin O dye for 1 min and washed with PBS again. Optical density at 492 nm is determined with a 96-well plate spectrometer reader. For each time point, an aliquot without biocide is a positive control. Percent inhibition of biofilm accumulation can be determined from the formula (A492positive−A492biocide)/(A492positive−A492)×100%, Such plating methods are well known to one skilled in the art and could be modified as desired for analysis of the biofilm.
(§3) For determination of the bacterial resistance of the biofilm formed on the catheter, the method described above was repeated using the same conditions except that the inoculated fluid continuously flowed through the catheter for two hours before fluid flow was discontinued to form a biofilm on the catheter.
The experiment was repeated as described above, except that Burkholderia cepacia (1×10^9 CFU/ml) was used to inoculate the serum.

Escherichia coli = settings: biofilm on vascular catheter, over all time periods (5 to 60 minutes), FIG. 12B
Enterococcus faecalis = settings: serum, 5 to 60 minutes
[1] = tested on: methicillin resistant Staphylococcus aureus (MRSA); settings: biofilm on vascular catheter, 5 to 60 minutes, FIG. 14B
Staphylococcus epidermis = settings: 5 to 60 minutes
Description: as §1, §2, §3
The experiment was repeated as described above, except that Staphylococcus epidermis (1×10^9 CFU/ml) was used to inoculate the serum.

Pseudomonas aeruginosa = settings: 5 to 60 minutes
Description: as §1, §2, §3
The experiment was repeated as described above, except that Pseudomonas aeruginosa (1×10^9 CFU/ml) was used to inoculate the serum.

[2] = tested on: Stenotrophomonas maltophilia; settings: 5 to 60 minutes
Description: as §1, §2, §3
The experiment was repeated as described above, except that Stenotrophomonas maltophilia (1×10^9 CFU/ml) was used to inoculate the serum.

For `CC(=O)OO` [PAA, peracetic acid], which “biofilm kill (biocide concentration required to kill 50% of bacteria that grew in the biofilm)” value (Acinetobacter baumanii) is on record?
Its value is “most effective”.

And the “biofilm kill (biocide concentration required to kill 50% of bacteria that grew in the biofilm)” value (Burkholderia cepacia; biofilm on vascular catheter, FIG. 11B)?
Its value is “most effective”.

And the “planktonic cell kill (biocide concentration required to kill 100% of bacteria present as planktonic cells)” value (Burkholderia cepacia; planktonic cells on vascular catheter, FIG. 11A)?
The value was “performed comparably and were more effective than hydrogen peroxide”.

And the “biofilm kill (biocide concentration required to kill 50% of bacteria that grew in the biofilm)” value (Escherichia coli)?
Its value is “most effective”.

What about the “biofilm kill (biocide concentration required to kill 50% of bacteria that grew in the biofilm)” value (Enterococcus faecalis; biofilm on vascular catheter, FIG. 13B) of the same compound?
Its value is “most effective”.

What about the “planktonic cell kill (biocide concentration required to kill 100% of bacteria present as planktonic cells)” value (Enterococcus faecalis; planktonic cells on vascular catheter, FIG. 13A) of the same compound?
Its value is “most effective”.

What about the “biofilm kill (biocide concentration required to kill 50% of bacteria that grew in the biofilm)” value [1] of the same compound?
The value was “most effective”.

And the “biofilm kill (biocide concentration required to kill 50% of bacteria that grew in the biofilm)” value (Staphylococcus epidermis; biofilm on vascular catheter, FIG. 15B)?
The value was “most effective”.

What about the “planktonic cell kill (biocide concentration required to kill 100% of bacteria present as planktonic cells)” value (Staphylococcus epidermis; planktonic cells on vascular catheter, FIG. 15A) of the same compound?
Its value is “performed similarly in planktonic cell kill and outperformed hydrogen peroxide”.

And the “biofilm kill (biocide concentration required to kill 50% of bacteria that grew in the biofilm)” value (Pseudomonas aeruginosa; biofilm on vascular catheter, FIG. 16B)?
Its value is “most effective”.

And the “planktonic cell kill (biocide concentration required to kill 100% of bacteria present as planktonic cells)” value (Pseudomonas aeruginosa; planktonic cells on vascular catheter, FIG. 16A)?
The value was “performed comparably and were more effective than hydrogen peroxide and SHC”.

And the “biofilm kill (biocide concentration required to kill 50% of bacteria that grew in the biofilm)” value ([2]; biofilm on vascular catheter, FIG. 17B)?
Its value is “most effective”.

And the “planktonic cell kill (biocide concentration required to kill 100% of bacteria present as planktonic cells)” value ([2]; planktonic cells on vascular catheter, FIG. 17A)?
Its value is “GLT was somewhat more effective in killing planktonic cells as compared to SHC or PAA”.

From patent US20080076147A1, “BIOFILM SAMPLING DEVICE” (BOARD OF TRUSTEES OF SOUTHERN ILLINOIS UNIVERSITY, priority 2006, published 2008)
